The text below walks through data of patent US20240114939A1, “HYDROXY- AND METHOXY-SUBSTITUTED FLAVONES AND THEIR USE” (Firmenich SA, priority 2021, published 2024).

Experiment [1] relates to human sensory panel. In words: Human sensory panel, bitter and astringent taste versus reference water solution with 10 ppm mixture of Limonin, Naringin and Nomilin. The following applies: 20 trained panelists, scale −5 (strong masking) to 5 (strong enhancing); for Astringency: 0 = reference water solution; for Bitterness: 0 = reference water solution with 10 ppm mixture of Limonin, Naringin and Nomilin. The experiment is classed as in vivo. From the text: (§1) Certain HMF compounds were tasted by a human sensory panel to assess their ability to reduce bitterness, reduce astringency, and enhance sweetness. The panel consisted of 20 trained panelists evaluating the samples at 1 ppm, 5 ppm, or 10 ppm for taste properties (sweet, bitter, or astringent) on a scale of −5 to 5 (−5 denoted strong masking effect and 5 denoted strong enhancing effect, 0 being the intensity of a reference water solution containing 4% sucrose or 10 ppm mixture of Limonin, Naringin and Nomilin) The results are set forth in Table 2. The composition numberings (“Cpn”) are set forth above in Example 1.

Experiment [2] relates to human sensory panel. In words: Human sensory panel, sweet taste versus reference water solution containing 4% sucrose. The following applies: 20 trained panelists, scale −5 (strong masking) to 5 (strong enhancing), 0 = reference water solution containing 4% sucrose. The experiment is classed as in vivo.
Description: as §1

Experiment [3] has as its system panel of 8 experts. In words: Expert panel, bitter and astringent taste in coffee. In kind it is in vivo, human. As to conditions: 10 ppm, scale −5 (strong masking) to 5 (strong enhancing), 0 = reference application in coffee. The source says:
A panel consisted in 8 experts evaluating the samples at 10 ppm for taste properties (bitter and astringent) on a scale of −5 to 5 (−5 denoted strong masking effect and 5 denoted strong enhancing effect, 0 being the intensity of a reference application in coffee).

Consider `COc1cc(-c2cc(=O)c3c(OC)c(OC)c(OC)cc3o2)ccc1O` [Cpd 101, 4′-hydroxy-5,6,7,3′-tetramethoxyflavone], for which, in experiment [1] (10 ppm), the Astringency is listed as −0.92 and the Bitterness is listed as −0.92. Also, the Sweetness in experiment [2] (10 ppm) worked out at 0.58.

`COc1cc(-c2cc(=O)c3c(OC)c(OC)c(OC)c(OC)c3o2)ccc1O` [Cpd 103, 4′-hydroxy-5,6,7,8,3′-pentamethoxyflavone]: in experiment [1] (10 ppm), the Astringency is given as −0.67 and the Bitterness is reported as −1.17. Moreover, in experiment [2] (10 ppm), the Sweetness is reported as 0.17.

As to `COc1cc2oc(-c3ccc(O)cc3)cc(=O)c2c(OC)c1OC` [Cpd 104, 4′-Hydroxy-5,6,7-trimethoxyflavone], in experiment [1] (10 ppm), the Astringency is on record as −0.33 and the Bitterness is listed as −1.00. The Sweetness in experiment [2] (10 ppm) came to 0.08.

Regarding `COc1c(OC)c(OC)c2c(=O)cc(-c3ccc(O)cc3)oc2c1OC` [Cpd 106, 4′-hydroxy-5,6,7,8-tetramethoxyflavone], in experiment [1] (5 ppm), the Astringency was −0.30 and the Bitterness is given as −2.00. Besides, the Sweetness in experiment [2] (5 ppm) is recorded as 0.25.

Consider `COc1ccc(-c2cc(=O)c3c(OC)c(OC)c(OC)cc3o2)cc1O` [Cpd 107, 3′-hydroxy-5,6,7,4′-tetramethoxyflavone], for which, in experiment [1] (1 ppm), the Astringency came out at 0.00 and the Bitterness worked out at 0.08. Further, the Sweetness in experiment [2] (1 ppm) turned out to be 0.50.

`COc1ccc(-c2cc(=O)c3c(OC)c(OC)c(OC)c(OC)c3o2)cc1O` [Cpd 109, 3′-hydroxy-5,6,7,8,4′-pentamethoxyflavone]: in experiment [3], the Astringency was found to be 0.60 and the Bitterness is listed as −1.80. For the same molecule, in experiment [1] (10 ppm), the Astringency is reported as −1.80 and the Bitterness is given as −3.51. For the same molecule, in experiment [2] (10 ppm), the Sweetness is 0.03.
